Each molecule was assayed against HCoV-229E 3CL protease (Human coronavirus 229E, UniProt P0C6U2) (assay: FRET based protease assay, HCoV-229E 3CL). Details: 229E IC50, 6 nM H229E-CoV Chis-3CLpro, 6 μM peptide 1 substrate, 25° C., 1.5 hrs, pH 7.5.
Sequence of HCoV-229E 3CL protease (P0C6U2 2966-3267): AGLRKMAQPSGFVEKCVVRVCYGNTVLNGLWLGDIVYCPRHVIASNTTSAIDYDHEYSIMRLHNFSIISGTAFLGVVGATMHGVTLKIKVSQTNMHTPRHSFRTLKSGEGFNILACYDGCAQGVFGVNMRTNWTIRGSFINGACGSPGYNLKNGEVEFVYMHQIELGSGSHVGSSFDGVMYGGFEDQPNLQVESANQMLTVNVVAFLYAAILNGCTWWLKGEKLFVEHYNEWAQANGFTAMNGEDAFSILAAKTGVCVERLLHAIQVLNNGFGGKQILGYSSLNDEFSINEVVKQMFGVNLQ
Assay type: biochemical
In the case of CC(C)C[C@@H]1NC(=O)[C@@H](Cc2ccccc2)CCCCC[C@H]2CNC(=O)[C@H]2C[C@@H](C#N)NC1=O [Example 50], the IC50 is reported as 1000 to 20000 nM. Work on CC(C)C[C@@H]1NC(=O)CCCCC[C@H]2CNC(=O)[C@H]2C[C@@H](C=O)NC1=O [Example 30] yielded an IC50 of under 100 nM. Work on Cc1cc(C(=O)N[C@H]2CCCC[C@H]3CNC(=O)[C@H]3C[C@@H](C#N)NC(=O)[C@@H]3[C@@H]4[C@H](CN3C2=O)C4(C)C)no1 [Example 122] yielded an IC50 of under 100 nM. CCC(C)(C)[C@@H]1NC(=O)[C@@H](NC(=O)OC(C)(C)C)CCCC[C@H]2CNC(=O)[C@H]2C[C@@H](C#N)NC1=O [Example 145] showed an IC50 of 1000 to 20000 nM. CC(C)(C)C(=O)N[C@H]1CCC[C@H]2CCNC(=O)[C@@H]2C[C@@H](C#N)NC(=O)[C@@H]2[C@@H]3[C@H](CN2C1=O)C3(C)C [Example 66] gave an IC50 of 100 to 1000 nM. With CC(C)C[C@@H]1NC(=O)[C@@H](NC(=O)C(C)(C)C)CCCC[C@H]2CNC(=O)[C@H]2C[C@@H](C#N)NC1=O [Example 44] the IC50 was under 100 nM. CC(C)(C)C(=O)N[C@H]1CC/C=C/[C@H]2CNC(=O)[C@H]2C[C@@H](C#N)NC(=O)[C@@H]2[C@H]3CCC[C@H]3CN2C1=O [Example 86] was tested, and the IC50 was under 100 nM. For CC(C)(C)OC(=O)N[C@H]1COCCC[C@H]2CNC(=O)[C@H]2C[C@@H](C#N)NC(=O)[C@@H]2[C@@H]3[C@H](CN2C1=O)C3(C)C [Example 102], the IC50 was under 100 nM. In the case of CC(C)(C)C(=O)N[C@H]1CCCC[C@H]2CNC(=O)[C@H]2C[C@@H](C#N)NC(=O)[C@@H]2[C@H]3CCC[C@H]3CN2C1=O [Example 70], the IC50 is reported as under 100 nM. With CC1(C)[C@@H]2[C@H]3C(=O)N[C@H](C#N)C[C@@H]4C(=O)NC[C@@H]4CCCC[C@H](NC(=O)c4ccc(Cl)c(Cl)c4)C(=O)N3C[C@@H]21 [Example 120] the IC50 was under 100 nM. In the case of CC(C)(C)C(=O)N[C@H]1CCCC[C@H]2CNC(=O)[C@H]2C[C@@H](C#N)NC(=O)[C@@H]2CCCCN2C1=O [Example 71], the IC50 is reported as 1000 to 20000 nM. With CC1(C)[C@@H]2[C@H]3C(=O)N[C@H](C#N)C[C@@H]4C(=O)NC[C@@H]4CCCC[C@H](NC(=O)C45CCC(C4)C5)C(=O)N3C[C@@H]21 [Example 148] the IC50 was under 100 nM. In the case of CC1(C)[C@@H]2[C@H]3C(=O)N[C@H](C#N)C[C@@H]4C(=O)NCC[C@@H]4CCCC[C@H](NC(=O)C(F)(F)F)C(=O)N3C[C@@H]21 [Example 104], the IC50 is reported as under 100 nM. CC(C)(C)C(=O)N[C@H]1CCCC[C@H]2CNC(=O)[C@H]2C[C@@H](C#N)NC(=O)[C@H](C2CCCC2)NC1=O [Example 80] gave an IC50 of 100 to 1000 nM. CC(C)C[C@@H]1NC(=O)[C@@H](C2CCCC2)CCCC[C@H]2CNC(=O)[C@H]2C[C@@H](C#N)NC1=O [Example 41] gave an IC50 of over 20000 nM. In the case of CC1(C)[C@@H]2[C@H]3C(=O)N[C@H](C#N)C[C@@H]4C(=O)NC[C@@H]4CCCC[C@H](NC(=O)C4CCOCC4)C(=O)N3C[C@@H]21 [Example 85], the IC50 is reported as under 100 nM. CC(C)C[C@@H]1NC(=O)[C@@H](NC(=O)OC(C)(C)C)CCCC[C@H]2CNC(=O)[C@H]2C[C@@H](C#N)NC1=O [Example 56] showed an IC50 of under 100 nM. CC(C)C[C@@H]1NC(=O)CCCCC[C@H]2CNC(=O)[C@H]2C[C@@H](C#N)NC1=O [Example 38] was tested, and the IC50 was 100 to 1000 nM. In the case of CC(C)C[C@@H]1NC(=O)CCCCC[C@@H]2CCNC(=O)[C@H]2C[C@@H](C=O)NC1=O [Example 33], the IC50 is reported as 1000 to 20000 nM. CC(C)(C)OC(=O)N[C@H]1CCCC[C@H]2CCNC(=O)C2C[C@@H](C#N)NC(=O)[C@@H]2[C@H]3CCC[C@H]3CN2C1=O (some centres unmarked) [Example 98] gave an IC50 of under 100 nM. In the case of Cc1nc(C(=O)N[C@H]2CCCC[C@H]3CNC(=O)[C@H]3C[C@@H](C#N)NC(=O)[C@@H]3[C@@H]4[C@H](CN3C2=O)C4(C)C)co1 [Example 115], the IC50 is reported as under 100 nM. N#C[C@@H]1C[C@@H]2C(=O)NC[C@@H]2CCCC[C@H](NC(=O)C2(C(F)(F)F)CC2)C(=O)N2CCC3(CC3)C[C@H]2C(=O)N1 [Example 151] gave an IC50 of under 100 nM. CC1(C)[C@@H]2[C@H]3C(=O)N[C@H](C#N)C[C@@H]4C(=O)NC[C@@H]4CCCC[C@H](NC(=O)C4CCCCC4)C(=O)N3C[C@@H]21 [Example 77] was tested, and the IC50 was under 100 nM.
